Reference: patent publication US7320972B2, “4-Biarylyl-1-phenylazetidin-2-ones” (Microbia, Inc., priority 2003, dated 2008)

Test system: cholesterol absorption (serum 3H-cholesterol)
Assay: In Vivo Assay of Hypolipidemic Agents using the Rat Cholesterol Absorption Model
Design: species or system Sprague-Dawley rats
Details: peroral, 5 mg/kg (footnote 3), serum 3H-cholesterol vs vehicle control
Method: In Vivo Assay of Hypolipidemic Agents using the Rat Cholesterol Absorption Model. This model is based on models described by Burnett et al (2002), Bioorg. Med. Chem. Lett. 2002 Feb. 11;12(3):315-8 and J. Lipid Res. 1999 October;40(10):1747-57. Female Sprague-Dawley rats weighing 150-250 g are separated into groups of […] and fasted overnight. The animals (4-6/group) are dosed perorally with 300 μL test compounds in olive oil or suitable vehicle. Thirty minutes later, 3-5 microCuries ^3H-cholesterol per rat are delivered perorally in 300 μL olive oil. After three hours, 200 μL serum is collected, vortexed with scintillation fluid, and measured for radioactivity in a scintillation counter. Percent inhibition is defined as 100*(1−Ctest/Cctrl), where Ctest and Cctl refer to ^3H levels in serum for the test compound and for the vehicle only control, respectively. Percent inhibition values are reported for a fixed dose. The ED50 is the dose at which the half-maximal effect on serum ^3H levels is observed for a given test compound.
Representative compounds of the invention were tested in the Rat Cholesterol Absorption model above.

Which “% inhibition at 5 mg/kg” value does the source give for `N#Cc1cccc(-c2ccc([C@@H]3[C@@H](CC[C@H](O)c4ccc(F)cc4)C(=O)N3c3ccc(F)cc3)cc2)c1` [Example 14, 4′-{(2S,3R)-1-(4-fluorophenyl)-3-[(3S)-3-(4-fluorophenyl)-3-hydroxypropyl]-4-oxoazetidin-2-yl}biphenyl-3-carbonitrile] here?
Its value is 32^3%.

Same assay, conditions: peroral, 10 mg/kg (footnote 1), serum 3H-cholesterol vs vehicle control

How did the “% inhibition at 10 mg/kg” value turn out when `O=C1[C@H](CC[C@H](O)c2ccc(F)cc2)[C@@H](c2ccc(-c3ccccc3)cc2)N1c1ccc(F)cc1` [Example 3, (3R,4S)-4-Biphenyl-4-yl-1-(4-fluorophenyl)-3-[(3S)-3-(4-fluorophenyl)-3-hydroxypropyl]azetidin-2-one] was run?
The value was 15^1%.

Same assay, conditions: po, peroral, 1 mg/kg, serum 3H-cholesterol 3 h after cholesterol dose, vs vehicle control

`COc1cccc(-c2ccc([C@@H]3[C@@H](CC[C@H](O)c4ccc(F)cc4)C(=O)N3c3ccc(F)cc3)cc2)c1` [Example 12, (3R,4S)-1-(4-fluorophenyl)-3-[(3S)-3-(4-fluorophenyl)-3-hydroxypropyl]-4-(3′-methoxybiphenyl-4-yl)azetidin-2-one] was tested. Which inhibition in vivo at 1 mg/kg did it give?
Its inhibition in vivo at 1 mg/kg is 70%.

Which inhibition in vivo at 1 mg/kg does the source give for `O=Cc1cccc(-c2ccc([C@@H]3[C@@H](CC[C@H](O)c4ccc(F)cc4)C(=O)N3c3ccc(F)cc3)cc2)c1` [Example 13, 4′-{(2S,3R)-1-(4-fluorophenyl)-3-[(3S)-3-(4-fluorophenyl)-3-hydroxypropyl]-4-oxoazetidin-2-yl}biphenyl-3-carbaldehyde] here?
The inhibition in vivo at 1 mg/kg was 70%.

For `CN(C)S(=O)(=O)c1ccc(-c2ccc([C@@H]3[C@@H](CC[C@H](O)c4ccc(F)cc4)C(=O)N3c3ccc(F)cc3)cc2)cc1` [Example 15, 4′-{(2S,3R)-1-(4-fluorophenyl)-3-[(3S)-3-(4-fluorophenyl)-3-hydroxypropyl]-4-oxoazetidin-2-yl}biphenyl-N,N-dimethylbiphenyl-4-sulfonamide], which inhibition in vivo at 1 mg/kg is on record?
Its inhibition in vivo at 1 mg/kg is 8%.

Which inhibition in vivo at 1 mg/kg does the source give for `O=C1[C@H](CC[C@H](O)c2ccc(F)cc2)[C@@H](c2ccc(-c3cccc(CO)c3)cc2)N1c1ccc(F)cc1` [Example 16, (3R,4S)-1-(4-Fluorophenyl)-3-[(3S)-3-(4-fluorophenyl)-3-hydroxypropyl]-4-(3′-(hydroxymethyl)biphenyl-4-yl)azetidin-2-one] here?
Its inhibition in vivo at 1 mg/kg is 72%.

For `CN(C)c1ccc(-c2ccc([C@@H]3[C@@H](CC[C@H](O)c4ccc(F)cc4)C(=O)N3c3ccc(F)cc3)cc2)cc1` [Example 17, (3R,4S)-4-[4′(dimethylamino)biphenyl-4-yl]-1-(4-fluorophenyl)-3-[(3S)-3-(4-fluorophenyl)-3-hydroxypropyl]azetidin-2-one], which inhibition in vivo at 1 mg/kg is on record?
Its inhibition in vivo at 1 mg/kg is 43%.

Which inhibition in vivo at 1 mg/kg does the source give for `O=C1[C@H](CC[C@H](O)c2ccc(F)cc2)[C@@H](c2ccc(-c3ccc(CO)cc3)cc2)N1c1ccc(F)cc1` [Example 18] here?
The inhibition in vivo at 1 mg/kg was 48%.

How did the inhibition in vivo at 1 mg/kg turn out when `O=C1[C@H](CC[C@H](O)c2ccc(F)cc2)[C@@H](c2ccc(-c3cc(O)ccc3Br)cc2)N1c1ccc(F)cc1` [Example 19, (3R,4S)-4-(2′-bromo-5′-hydroxybiphenyl-4-yl)-1-(4-fluorophenyl)-3-[(3S)-3-(4-fluorophenyl)-3-hydroxypropyl]azetidin-2-one] was run?
Its inhibition in vivo at 1 mg/kg is 66%.

Which inhibition in vivo at 1 mg/kg does the source give for `O=C(O)[C@@H]1O[C@H](Oc2cccc(-c3ccc([C@@H]4[C@@H](CC[C@H](O)c5ccc(F)cc5)C(=O)N4c4ccc(F)cc4)cc3)c2)[C@@H](O)[C@H](O)[C@H]1O` [Example 20, 4′-{(2S,3R)-1-(4-fluorophenyl)-3-[(3S)-3-(4-fluorophenyl)-3-hydroxypropyl]-4-oxoazetidin-2-yl}biphenyl-3-yl β-L-glucopyranosiduronic Acid] here?
Its inhibition in vivo at 1 mg/kg is 59%.

For `O=C(O)c1cccc(-c2ccc([C@@H]3[C@@H](CC[C@H](O)c4ccc(F)cc4)C(=O)N3c3ccc(F)cc3)cc2)c1` [Example 21, 4′-{(2S,3R)-1-(4-fluorophenyl)-3-[(3S)-3-(4-fluorophenyl)-3-hydroxypropyl]-4-oxoazetidin-2-yl]biphenyl-3-carboxylic acid], which inhibition in vivo at 1 mg/kg is on record?
Its inhibition in vivo at 1 mg/kg is 68%.
